Assay [1] deals with nerve growth factor (NGF). As to the kind of experiment: NGF level in sciatic nerve of db/db male mice with type 2 diabetes (ELISA). Type of assay: in vivo, mouse. How it is done: (§1) db/db Male mice, each weighing 40^˜45 g, were acclimated for one week at 22-24° C. at a relative humidity of 60-80%, with a standard diet and water fed thereto. On the day of the 9th week after birth, the mice in which diabetes had been induced were selected. Four weeks later, mice suffering from type 2 diabetes were separated according to blood sugar level. The extracts prepared in the above Examples were orally administered once a day for 12 weeks at predetermined doses to the mice, while α-lipoic acid and gabapentin were used as positive controls at a dose of 50 mg/kg and 100 mg/kg, respectively. Mice in each group were placed on a 58° C. hot plate, and examined for hyperalgesia to heat stimulus by measuring the latent time it took for the mice to feel a heat pain on their foot soles and jump.
Then, the mice were sacrificed to obtain the sciatic nerve therefrom. The sciatic nerve was processed in the same manner as in Test Example 1 and its NGF level was measured by ELISA.
(In general: An ELISA detects its analyte on a solid surface through an enzyme-linked reagent.)

Assay [2] deals with SD male rats with streptozotocin-induced type 1 diabetes. The assay is described as follows: Neurodegeneration: size and thickness of myelin sheath of sciatic nerve by electron microscope, streptozotocin-diabetic SD rats. The format is in vivo, rat. The protocol:
(§2) The ability of the extracts to alleviate the pain caused by diabetic neuropathy was examined. In this regard, rats with streptozotocin-induced diabetes were separated and orally administered with the extracts at a predetermined dose once a day for 14 weeks, with α-lipoic acid 50 mg/kg and Gabapentin 100 mg/kg serving as positive controls. A Randall-Sellito test was performed to measure a threshold response to pressure on a paw. The latent time taken to respond to a thermal pain was measured using a tail-flick test. In order to evaluate the neurodegeneration which had progressed with the onset of diabetic neuropathy, the sciatic nerve taken from the rats of each group was fixed with formalin and observed under an electron microscope to measure the size and thickness of the myelin sheath, and the results are summarized in Table 9.

In assay [3] the test system is nerve growth factor (NGF). The assay is described as follows: Test for in vivo level of nerve growth factor in normal mouse model (ELISA). The note with it: normal male ICR mice. How it is done:
Ability of the crude extract with 50% ethanol in Example 1 to induce the secretion of nerve growth factor in vivo was evaluates (O. Arrieta and J. Sotelo et al., Retinoic acid increased tissue and plasma contents of nerve growth factor and prevents neuropathy in diabetic mice. European Journal of Clinical Investigation (2005) 35).
Male ICR mice, each weighing 25-30 g, were acclimated for 1 week at 22-24° C. at a relative humidity of 60-80% while being fed with water and a standard diet. They were divided into groups according to weight. The extracts prepared in the above Examples were orally administered in predetermined amounts to the mice, with Gabapentin used as a positive control at a doe of 100 mg/kg. 16 hours after which blood was sampled from the mice. They were then sacrificed to obtain the sciatic nerve and the salivary glands.
After the blood samples were centrifuged at 10,000 rpm for 10 min, the levels of nerve growth factor in the plasma thus separated were measured by ELISA (ABS 440 nm). The sciatic nerve and the salivary glands were weighed and a solution containing 100 mM Tris-HCl, 1M NaCl, 2% BSA, 4 mM EDTA, 2.0% Trtion®X-100, 0.02% sodium azide, 0.1 mg/ml pepstatin A, 5 mg/ml aprotonin, 0.5 mg/ml antipain, 167 mg/ml benzamidine, and 5.2 mg/ml PMSF was added in amounts proportional to the weights, followed by homogenization. The homogenates were incubated for 15 min with 1N HCl in an amount of 1 μl/50 μl for oxidization and neutralized with 1N NaOH in an amount of 1 μl/50 μl. Centrifugation was performed at 10,000 rpm for 10 min to obtain supernatants. Like plasma, the sciatic nerve and the salivary glands were quantitatively analyzed for the level of nerve growth factor.

Assay [4] relates to nerve growth factor (NGF). As to the kind of experiment: NGF level in sciatic nerve and salivary gland of SD male rats with streptozotocin-induced type 1 diabetes (ELISA). The format is in vivo, rat. The note with it: streptozotocin-diabetic SD male rats. How it is done: SD male rats, each weighing 220^˜250 g, were acclimated for one week at 22-24° C. at a relative humidity of 60-80% with standard diet and water fed thereto. Thereafter, a solution of streptozotocin in saline was intravenously administered once at a dose of 50 mg/kg to the rats to induce type 1 diabetes. Four weeks after the induction of diabetes, rats were divided into groups according to blood sugar level. The extracts prepared in the above Examples were orally administered once a day for 8 weeks at predetermined doses to the rats, while α-lipoic acid and Gabapentin were used as positive controls at does of 50 mg/kg and 100 mg/kg, respectively. Then, they were sacrificed to obtain the sciatic nerve and the salivary glands. The sciatic nerve and the salivary glands were processed in the same manner as in Test Example 1 and measured for NGF level by ELISA.

Assay [5] concerns ICR male mice with streptozotocin-induced type 1 diabetes. The assay is described as follows: 58° C. hot plate test, ICR male mice with streptozotocin-induced type 1 diabetes. Type of assay: in vivo, mouse. As to conditions: streptozotocin-diabetic ICR male mice. The protocol: (§3) ICR male mice, each weighing 25^˜30 g, were acclimated for one week at 22-24° C. at a relative humidity of 60-80%, with a standard diet and water fed thereto. Thereafter, a solution of streptozotocin in saline was intravenously administered once at a dose of 200 mg/kg to the mice to induce type 1 diabetes. Four weeks after the induction of diabetes, rats were divided into groups according to blood sugar level. The extracts prepared in the above Examples were orally administered once a day for 14 weeks at predetermined doses to the mice, while α-lipoic acid and Gabapentin were used as positive controls at a dose of 50 mg/kg and 100 mg/kg, respectively. Mice in each group were placed on a 58° C. hot plate, and examined for hyperalgesia to heat stimulus by measuring the latent time it took for the mice to feel a heat pain on their foot soles and jump.
On the technique in general: Hot-plate and tail-flick tests time the reaction to a heat stimulus.

In assay [6] the test system is db/db male mice with type 2 diabetes. As to the kind of experiment: 58° C. hot plate test, db/db male mice with type 2 diabetes. The format is in vivo, mouse. How it is done: as §1
Assay [7] has as its system SD male rats with streptozotocin-induced type 1 diabetes. The assay is described as follows: Randall-Sellito test, threshold response to pressure on a paw, streptozotocin-diabetic SD rats. Type of assay: in vivo, rat. The protocol:
as §2
(§4) An increase in threshold to mechanical stimuli delineates an increase in threshold to pain. In the tail flick test, an increase in latent time to pain response corresponds to an increase in threshold to thermal stimuli, indicating the alleviation of pain.

Assay [8] concerns nerve growth factor (NGF). The assay is described as follows: NGF level in sciatic nerve and salivary gland of ICR male mice with streptozotocin-induced type 1 diabetes (ELISA). Type of assay: in vivo, mouse. The note with it: streptozotocin-diabetic ICR male mice. How it is done: as §3
Then, the mice were sacrificed to obtain the sciatic nerve and the salivary glands therefrom. The sciatic nerve and the salivary glands were processed in the same manner as in Test Example 1 and measured for NGF level by ELISA.

Assay [9] concerns SD male rats with streptozotocin-induced type 1 diabetes. The assay is described as follows: Tail-flick test, latent time to thermal pain, streptozotocin-diabetic SD rats. Type of assay: in vivo, rat. The protocol:
as §2, §4

The next assay deals with TrkA (NGF receptor). The assay is described as follows: Phosphorylation of NGF receptor in PC12 nerve cells (Western blotting). As to conditions: 48 hours. The format is cell-based, rat. How it is done:
For use in this test, PC12 nerve cells were seeded at the same density per well into plates and incubated for 24 hours. The cells were washed with PBS and cultured for 48 hours in culture media supplemented with the herb extracts of Example 1 or Comparative Examples 1 to 10 or NGF. Thereafter, phosphorylated TrkA (NGF receptor) were detected using Western blotting, and quantitatively analyzed on the basis of the thickness of the detected bands.
NGF signaling starts with the binding of NGF to its receptor (Trk-A), which results in the phosphorylation of the receptor. Thus, an increased level of phosphorylated NGF receptors means the amplification of the NGF signaling pathway.
Background: Immunoblotting shows a protein as a band on a membrane.

In the next assay the test system is PC12 nerve cells. The assay is described as follows: Growth of PC12 nerve cells (MTS assay). Type of assay: cell-based, rat. The note with it: 48 hours. How it is done: For use in a test for ability to induce nerve cell growth, PC12 nerve cells were seeded at the same density per well into plates and incubated for 24 hours.
Assay [10] has as its system DRG (Dorsal root ganglion) nerve cells. The assay is described as follows: Growth of neurites in rat-derived DRG nerve cells (neurite area under microscope). The format is cell-based. The note with it: rat embryo DRG cells, 48 hours. How it is done: For use in this test, DRG nerve cells were seeded at the same density into plates and incubated for 24 hours. Thereafter, the cells were washed with PBS and cultured for 48 hours in a culture medium in the absence or presence of a combination of the extract of Example 1 or Comparative Examples 1 to 10, and NGF. The nerve cells in each group were observed under a microscope to measure the area of the neurites grown therein.

The mark [11] stands for this setting: 50 mg/kg once a day for 12 weeks.
[12] abbreviates: 50 mg/kg once a day for 8 weeks.
Setting [13] is: 50 mg/kg once a day for 14 weeks.
Setting [14] is: oral 100 mg/kg once a day for 12 weeks.
Setting [15] is: oral 100 mg/kg, 16 hours after dosing.
The mark [16] stands for this setting: oral 100 mg/kg once a day for 8 weeks.
Setting [17] is: oral 100 mg/kg once a day for 14 weeks.

The values that follow come from patent publication US10398747B2, “Composition comprising the extract of herbal combination for preventing or treating diabetic peripheral neuropathy” (DONG-A ST CO., LTD., priority 2011, dated 2019).

As to `O=C(O)CCCCC1CCSS1` (stereo not drawn) [α-Lipoic acid], the figures for the “NGF Level in Sciatic Nerve” value in assay [1] (setting [11]) and in assay [3] (50 mg/kg) were 7.6 pg/mg and 5.0 pg/mg, respectively. In addition, the “Size of Myelin sheath” value in [2] (50 mg/kg) is on record as 11.2 μm. Moreover, the “Thickness of Myelin sheath” value in [2] (50 mg/kg) is given as 2.6 μm. Besides, the “NGF Level in Salivary Gland” value in [3] (50 mg/kg) came out at 164.4 ng/mg. Also, the “NGF Level Salivary Gland” value in assay [4] (setting [12]) amounted to 2.8 ng/mg; in [8] (setting [13]), 118.7 ng/mg. Moreover, the “NGF Level Sciatic Nerve” value was found to be 13.8 pg/mg in assay [4] (setting [12]) and 5.7 pg/mg in [8] (setting [13]). Besides, the “Latent Time to Pain Response on 58° C. Hot Plate” value (from here on “Latent Time to Pain Response”) in assay [5] (setting [13]) was found to be 31.1 s; in assay [6] (setting [11]), 15.4 s. Further, the “Pressure Pain Threshold” value in [7] (setting [13]) is listed as 150.0 g. In addition, in assay [9] (setting [13]), the “Latent Time to Pain Reaction” value came out at 7.4 s.
On to “NGF: nerve growth factor added to culture media”, for which the figures for the “Relative Amount of Phosphorylated NGF” value in the assay on TrkA (NGF receptor) (NGF 2 ng/ml alone) and with TrkA (NGF receptor) (NGF 50 ng/ml alone) were 241 % of control and 337 % of control, respectively. Moreover, the “Proliferative Effect on Nerve Cell” value is reported as 112 % of control with PC12 nerve cells (2 ng/ml) and 118 % of control in the assay with PC12 nerve cells (50 ng/ml). The “Neurite Area of DRG Nerve Cell” value in assay [10] (NGF 2 ng/ml alone) is 235 μm^2; in [10] (NGF 50 ng/ml alone), 461 μm^2.
On to `NCC1(CC(=O)O)CCCCC1` [Gabapentin], for which the “NGF Level in Sciatic Nerve” value in assay [1] (setting [14]) is 7.2 pg/mg. In addition, in [2] (100 mg/kg), the “Size of Myelin sheath” value came to 10.4 μm and the “Thickness of Myelin sheath” value was 2.2 μm. Also, in [3] (setting [15]), the “NGF Level in Plasma” value was 610.4 pg/mL, the “NGF Level in Salivary Gland” value is given as 193.1 ng/mg and the “NGF Level in Sciatic Nerve” value worked out at 4.2 pg/mg. In addition, in [4] (setting [16]), the “NGF Level Salivary Gland” value was determined as 2.4 ng/mg and the “NGF Level Sciatic Nerve” value was found to be 14.9 pg/mg. The “Latent Time to Pain Response” value in assay [5] (setting [17]) amounted to 33.0 s. In assay [6] (setting [14]), the “Latent Time to Pain Response” value worked out at 16.1 s. Besides, the “Pressure Pain Threshold” value in [7] (setting [17]) was 137.7 g. Besides, in [8] (setting [17]), the “NGF Level Salivary Gland” value is listed as 117.1 ng/mg and the “NGF Level Sciatic Nerve” value was 5.5 pg/mg. Further, the “Latent Time to Pain Reaction” value in [9] (setting [17]) came to 7.7 s.
